Experimental findings from US6964975B2, “Isoxazole and thiazole compounds and use thereof as medicine” (Kirin Beer Kabushiki Kaisha, priority 2000, dated 2005) are described below.

The assay deals with T1, human EDG-2 (Homo sapiens, UniProt Q92633).
T1 construct: cDNA of the cloned human EDG-2 was introduced into pEFneo, which is an animal expression vector; expressed in transfected cells; host or cells: HepG2
T1 sequence (Q92633 whole entry): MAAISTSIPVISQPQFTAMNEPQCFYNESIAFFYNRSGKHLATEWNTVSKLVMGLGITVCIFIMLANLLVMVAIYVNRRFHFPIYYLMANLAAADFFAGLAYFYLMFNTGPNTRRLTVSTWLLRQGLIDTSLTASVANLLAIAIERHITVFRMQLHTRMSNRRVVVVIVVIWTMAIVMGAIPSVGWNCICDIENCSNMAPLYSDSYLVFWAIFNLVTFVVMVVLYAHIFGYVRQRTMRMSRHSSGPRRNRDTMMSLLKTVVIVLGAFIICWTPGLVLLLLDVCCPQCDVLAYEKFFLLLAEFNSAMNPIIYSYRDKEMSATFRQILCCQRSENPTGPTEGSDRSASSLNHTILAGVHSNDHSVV
Briefly: Inhibitory activity on LPA-induced elevation of intracellular Ca2+ level. In kind it is cell-based. Conditions: 50% inhibition of elevation of intracellular Ca2+ level by LPA, human EDG-2/HepG2 cells, fura-2. The text has this: The human EDG-2 expression plasmid was introduced into HepG2 cells by electroporation. After the introduction, culturing was continued while exchanging selective media every 3 to 4 days, thereby obtaining an expressed colony. Regarding these cells, Ca-influx and cell-proliferation by LPA, level of [^3H] LPA binding and the like were inspected to select a cell line which highly expresses human EDG-2 (human EDG-2/HepG2).
Human EDG-2/HepG2 cells were washed and then suspended in 0.1% BSA (bovine serum albumin)-containing HEPES buffer. A fluorescent indicator, fura-2/AM (Wako Pure Chemical Industries, Ltd.), was added, and the mixture was shaken at room temperature for 45 minutes so that the indicator is included in the cell. Cells were washed again and then suspended in 0.1% BSA-containing HEPES buffer, and intracellular Ca^2+ level was assayed using FDSS2000 (Hamamatsu Photonics). […] Each test compound was added to the cell suspension followed by the addition of LPA, thereby examining the inhibitory activity of the test compound on the function of LPA for elevating the intracellular Ca level. […] The lower the IC50 value, the higher the antagonistic activity on the LPA receptor.
In turn, `Cc1cccc(-c2onc(C)c2NC(=O)OC(C)c2ccccc2Cl)c1` (stereo not drawn) [Compound 28, 1-(2-Chlorophenyl)ethyl N-[3-methyl-5-(3-methylphenyl)-4-isoxazolyl]carbamate] showed an IC50 of 10 to 30 µM. With `CCc1noc(-c2ccccc2)c1NC(=O)OC(C)c1ccccc1Cl` (stereo not drawn) [Compound 76, 1-(2-Chlorophenyl)ethyl N-(3-ethyl-5-phenyl-4-isoxazolyl)carbamate] the figure was 1 to 3 µM; with `Cc1noc(-c2ccccc2)c1NC(=O)OCc1ccccc1` [Compound 7, Benzyl N-(3-methyl-5-phenyl-4-isoxazolyl)carbamate], 30 µM.

`Cc1noc(-c2ccc([N+](=O)[O-])cc2)c1NC(=O)OC(C)c1ccccc1Cl` (stereo not drawn) [Compound 55, 1-(2-Chlorophenyl)ethyl N-[3-methyl-5-(4-nitrophenyl)-4-isoxazolyl]carbamate] registered an IC50 of 3 to 10 µM. `Cc1noc(-c2ccc(COCc3ccc(F)cc3)cc2)c1NC(=O)OC(C)c1ccccc1Cl` (stereo not drawn) [Compound 82, 1-(2-Chlorophenyl)ethyl N-[5-(4-[[(4-fluorobenzyl)oxy]methyl]phenyl)-3-methyl-4-isoxazolyl]carbamate] came in with an IC50 of 10 to 30 µM. As to `Cc1noc(-c2cccc(OC(F)(F)F)c2)c1NC(=O)OC(C)c1ccccc1Cl` (stereo not drawn) [Compound 53, 1-(2-Chlorophenyl)ethyl N-[3-methyl-5-[3-(trifluoromethoxy)phenyl]-4-isoxazolyl]carbamate], the IC50 came to 30 µM. This counts as double-digit micromolar. `Cc1ccc(-c2onc(C)c2NC(=O)OC(C)c2ccccc2Cl)s1` (stereo not drawn) [Compound 69, 1-(2-Chlorophenyl)ethyl N-[3-methyl-5-(5-methyl-2-thienyl)-4-isoxazolyl]carbamate] returned an IC50 of 3 to 10 µM.

`Cc1onc(-c2ccccc2)c1NC(=O)OC(C)c1ccccc1` (stereo not drawn) [Compound 12, 1-Phenylethyl N-(5-methyl-3-phenyl-4-isoxazolyl)carbamate] showed an IC50 of 30 to 100 µM.

Molecule `Cc1noc(-c2ccc(Br)o2)c1NC(=O)OC(C)c1ccccc1Cl` (stereo not drawn) [Compound 73, 1-(2-Chlorophenyl)ethyl N-[5-(5-bromo-2-furyl)-3-methyl-4-isoxazolyl]carbamate] registered an IC50 of 1 to 3 µM. As for `Cc1onc(-c2ccccc2)c1NC(=O)OC1CCc2ccccc21` (stereo not drawn) [Compound 97, 2,3-Dihydro-1H-1-indenyl N-(5-methyl-3-phenyl-4-isoxazolyl)carbamate], the figure is 30 to 100 µM; as for `Cc1noc(-c2ccc(CCl)cc2)c1NC(=O)OC(C)c1ccccc1Cl` (stereo not drawn) [Compound 74, 1-(2-Chlorophenyl)ethyl N-[5-[4-(chloromethyl)phenyl]-3-methyl-4-isoxazolyl]carbamate], 1 to 3 µM; as for `CCCCCOC(=O)Nc1c(-c2ccccc2)noc1C` [Compound 99, Pentyl N-(5-methyl-3-phenyl-4-isoxazolyl)carbamate], 30 to 100 µM. As for `Cc1onc(-c2ccccc2)c1NC(=O)OC1CCc2ccccc2C1` (stereo not drawn) [Compound 98, 1,2,3,4-Tetrahydro-2-naphthalenyl N-(5-methyl-3-phenyl-4-isoxazolyl)carbamate], the IC50 lay within 30 to 100 µM. With `Cc1noc(-c2ccoc2)c1NC(=O)OC(C)c1ccccc1Cl` (stereo not drawn) [Compound 68, 1-(2-Chlorophenyl)ethyl N-[5-(3-furyl)-3-methyl-4-isoxazolyl]carbamate] the figure was 3 to 10 µM; with `Cc1ccc(-c2onc(C)c2NC(=O)OC(C)c2ccccc2Cl)cc1` (stereo not drawn) [Compound 38, 1-(2-Chlorophenyl)ethyl N-[3-methyl-5-(4-methylphenyl)-4-isoxazolyl]carbamate], 10 µM. In the case of `Cc1noc(-c2cccs2)c1NC(=O)OC(C)c1ccccc1` (stereo not drawn) [Compound 56, 1-Phenylethyl N-[3-methyl-5-(2-thienyl)-4-isoxazolyl]carbamate], the IC50 is 3 to 10 µM. `Cc1onc(-c2ccc(CO)cc2)c1NC(=O)OC(C)c1ccccc1Cl` (stereo not drawn) [Compound 8, 1-(2-Chlorophenyl)ethyl N-[3-[4-(hydroxymethyl)phenyl]-5-methyl-4-isoxazolyl]carbamate] gave an IC50 of 3 to 10 µM. As for `Cc1noc(-c2ccc(COCc3ccoc3)cc2)c1NC(=O)OC(C)c1ccccc1Cl` (stereo not drawn) [Compound 85, 1-(2-Chlorophenyl)ethyl N-(5-[4-[(3-furylmethoxy)methyl]phenyl]-3-methyl-4-isoxazolyl)carbamate], the figure is 3 to 10 µM; as for `Cc1noc(-c2ccc(C#N)cc2)c1NC(=O)OC(c1ccccc1)C(F)(F)F` (stereo not drawn) [Compound 86, 2,2,2-Trifluoro-1-phenylethyl N-[5-(4-cyanophenyl)-3-methyl-4-isoxazolyl]carbamate], 1 to 3 µM.

Molecule `COCc1ccc(-c2onc(C)c2NC(=O)OC(C)c2ccccc2Cl)cc1` (stereo not drawn) [Compound 87, 1-(2-Chlorophenyl)ethyl N-[5-[4-(methoxymethyl)phenyl]-3-methyl-4-isoxazolyl]carbamate] registered an IC50 of 3 µM. As to `Cc1noc(-c2ccc(COCc3ccco3)cc2)c1NC(=O)OC(C)c1ccccc1Cl` (stereo not drawn) [Compound 84, 1-(2-Chlorophenyl)ethyl N-(5-[4-[(2-furylmethoxy)methyl]phenyl]-3-methyl-4-isoxazolyl)carbamate], the IC50 lay in the range of 3 to 10 µM. With `Cc1noc(-c2ccc(OC(F)(F)F)cc2)c1NC(=O)OC(C)c1ccccc1` (stereo not drawn) [Compound 35, 1-Phenylethyl N-[5-[4-(trifluoromethoxy)phenyl]-3-methyl-4-isoxazolyl]carbamate] the figure was 3 to 10 µM. As for `Cc1noc(-c2ccc(F)cc2)c1NC(=O)OC(C)c1ccccc1Cl` (stereo not drawn) [Compound 41, 1-(2-Chlorophenyl)ethyl N-[5-(4-fluorophenyl)-3-methyl-4-isoxazolyl]carbamate], the figure is 3 to 10 µM. On to `C=CCCCOC(=O)Nc1c(-c2ccccc2)noc1C` [Compound 102, 4-Pentenyl N-(5-methyl-3-phenyl-4-isoxazolyl)carbamate], for which the IC50 lay within 30 to 100 µM. As for `Cc1noc(-c2ccc(F)cc2)c1NC(=O)OC(C)c1ccccc1` (stereo not drawn) [Compound 40, 1-Phenylethyl N-[5-(4-fluorophenyl)-3-methyl-4-isoxazolyl]carbamate], the figure is 10 µM; as for `CCCCC(C)OC(=O)Nc1c(-c2ccccc2)noc1C` (stereo not drawn) [Compound 101, 1-Methylpentyl N-(5-methyl-3-phenyl-4-isoxazolyl)carbamate], 30 to 100 µM; as for `Cc1cccc(-c2onc(C)c2NC(=O)OC(C)c2ccccc2)c1` (stereo not drawn) [Compound 27, 1-Phenylethyl N-[3-methyl-5-(3-methylphenyl)-4-isoxazolyl]carbamate], 30 µM. With `Cc1noc(-c2cccc(F)c2)c1NC(=O)O[C@H](C)c1ccccc1Br` [Compound 33, (1R)-1-(2-Bromophenyl)ethyl N-[5-(3-fluorophenyl)-3-methyl-4-isoxazolyl]carbamate] the figure was 3 to 10 µM. On to `Cc1onc(-c2ccc([N+](=O)[O-])cc2)c1NC(=O)OC(C)c1ccccc1Cl` (stereo not drawn) [Compound 6, 1-(2-Chlorophenyl)ethyl N-[5-methyl-3-(4-nitrophenyl)-4-isoxazolyl]carbamate], for which 10 µM corresponded to half-maximal inhibition (IC50). With `Cc1onc(-c2ccccc2)c1NC(=O)OCc1ccccc1` [Compound 2, Benzyl N-(5-methyl-3-phenyl-4-isoxazolyl)carbamate] the figure was 30 to 100 µM. With `Cc1noc(-c2ccc(CNCc3ccco3)cc2)c1NC(=O)OC(C)c1ccccc1Cl` (stereo not drawn) [Compound 93, 1-(2-Chlorophenyl)ethyl N-[5-(4-[[(2-furylmethyl)amino]methyl]phenyl)-3-methyl-4-isoxazolyl]carbamate] the figure was 3 to 10 µM; with `Cc1noc(-c2ccccc2)c1NC(=O)O[C@H](C)c1ccccc1Cl` [Compound 18, (1R)-1-(2-Chlorophenyl)ethyl N-(3-methyl-5-phenyl-4-isoxazolyl)carbamate], 3 µM. `Cc1noc(-c2ccccc2F)c1NC(=O)OC(C)c1ccccc1` (stereo not drawn) [Compound 42, 1-Phenylethyl N-[5-(2-fluorophenyl)-3-methyl-4-isoxazolyl]carbamate] showed an IC50 of 10 µM. Regarding `COCc1noc(-c2ccccc2)c1NC(=O)OC(C)c1ccccc1Cl` (stereo not drawn) [Compound 78, 1-(2-Chlorophenyl)ethyl N-[3-(methoxymethyl)-5-phenyl-4-isoxazolyl]carbamate], the IC50 was determined as 30 µM. Molecule `Cc1noc(-c2ccco2)c1NC(=O)OC(C)c1ccccc1` (stereo not drawn) [Compound 31, 1-Phenylethyl N-[5-(2-furyl)-3-methyl-4-isoxazolyl]carbamate] returned an IC50 of 10 µM. As for `Cc1noc(-c2ccc(F)cc2F)c1NC(=O)OC(C)c1ccccc1Cl` (stereo not drawn) [Compound 60, 1-(2-Chlorophenyl)ethyl N-[5-(2,4-difluorophenyl)-3-methyl-4-isoxazolyl]carbamate], the figure is 1 to 3 µM; as for `CC(OC(=O)Nc1c(Cl)nsc1-c1ccccc1Cl)c1ccccc1` (stereo not drawn) [Compound 25, 1-Phenylethyl N-[3-chloro-5-(2-chlorophenyl)-4-isothiazolyl]carbamate], 30 to 100 µM; as for `Cc1noc(-c2ccncc2)c1NC(=O)OC(C)c1ccccc1` (stereo not drawn) [Compound 61, 1-Phenylethyl N-[3-methyl-5-(4-pyridyl)-4-isoxazolyl]carbamate], 3 to 10 µM. Molecule `Cc1onc(-c2ccc(OC(F)(F)F)cc2)c1NC(=O)OC(C)c1ccccc1Cl` (stereo not drawn) [Compound 11, 1-(2-Chlorophenyl)ethyl N-[5-methyl-3-[4-(trifluoromethoxy)phenyl]-4-isoxazolyl]carbamate] returned an IC50 of 10 to 30 µM.
